The values below are quoted from earlier work in patent publication US11167002B2, “Pharmaceutical composition for the treatment of malignant neoplasms including sarcoma, cancers of liver, lung, bladder, blood and cervical, treatment of infectious diseases and type 2 diabetes” (priority 2019, dated 2021).

Series [1] has as its system Entamoeba histolytica and Giardia lamblia. As to conditions: allicin in pure form.
Series [2] deals with Gram-negative and Gram-positive bacteria, including multidrug-resistant enterotoxigenic strains of Escherichia coli. As to conditions: allicin in pure form.
In the next series the test system is Candida albicans. The following applies: allicin in pure form.
The conditions of series [3]: allicin in pure form.

For `C=CCS[S+]([O-])CC=C` (stereo not shown) [Allicin], in series [1], the antiparasitic activity result is recorded as “antiparasitic activity”. Besides, the antibacterial activity entry in series [2] is on record as “antibacterial activity”. Also, the antifungal activity entry in the series on Candida albicans was “antifungal activity”. Moreover, the antiviral activity result in series [3] is on record as “antiviral activity”.
